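Compound exposure: 48 hours, 5 concentrations, 96-well plates. Here, GI50 denotes the concentration required for 50% inhibition of growth.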 The source made the active and inactive calls. No stated cut-off is given here; in the data, active = GI50 up to about 1.1 µM and inactive = higher.
How the values were obtained:
Test in all cases: DTP human tumour cell line panel, 48 h
A498 = test system: A498
UACC-62 = test system: UACC-62
HT-29 = test system: HT-29
RXF 393 = test system: RXF 393
OVCAR-8 = test system: OVCAR-8
SR = test system: SR
EKVX = test system: EKVX
SN12C = test system: SN12C
NCI/ADR-RES = test system: NCI/ADR-RES
SK-OV-3 = test system: SK-OV-3
OVCAR-3 = test system: OVCAR-3
HOP-62 = test system: HOP-62
SNB-19 = test system: SNB-19
NCI-H460 = test system: NCI-H460
MCF7 = test system: MCF7
Malme-3M = test system: Malme-3M
CAKI-1 = test system: CAKI-1
HL-60 = test system: HL-60
BT-549 = test system: BT-549

Measured: GI50

COc1ccccc1NC(=S)NN=C(C)c1cccc(C(C)=NNC(=S)Nc2ccccc2OC)n1
inactive: A498 29.1 µM | UACC-62 20.5 µM | HT-29 18 µM | RXF 393 12.9 µM | OVCAR-8 12.9 µM | SR 1.66 µM | EKVX 24 µM | SN12C 30 µM | NCI/ADR-RES 10.4 µM | SK-OV-3 99.8 µM | OVCAR-3 7.87 µM | HOP-62 42.8 µM | SNB-19 77.4 µM | NCI-H460 24 µM | MCF7 29.1 µM | Malme-3M 3.49 µM | CAKI-1 82.2 µM | HL-60 26.3 µM

O=C1Nc2ccccc2/C1=N/NC(=S)N1CCCCCC1
inactive: HT-29 1.3 µM | SN12C 1.42 µM | SK-OV-3 1.65 µM | SNB-19 1.54 µM | MCF7 1.96 µM | CAKI-1 1.43 µM
active: A498 1.07 µM | UACC-62 0.489 µM | RXF 393 0.644 µM | OVCAR-8 0.895 µM | SR 0.212 µM | EKVX 0.851 µM | NCI/ADR-RES 0.0769 µM | OVCAR-3 0.163 µM | HOP-62 0.242 µM | NCI-H460 0.09 µM | Malme-3M 0.272 µM

Cc1nc2c(C)ccc([N+](=O)[O-])c2c(NCCCN(C)C)c1C
inactive: A498 > 22.3 µM | UACC-62 37.2 µM | HT-29 24.7 µM | RXF 393 58.7 µM | OVCAR-8 > 46.6 µM | SR 38.3 µM | EKVX > 59.7 µM | SN12C > 62.8 µM | NCI/ADR-RES > 100 µM | SK-OV-3 > 100 µM | OVCAR-3 47.9 µM | HOP-62 > 43.9 µM | SNB-19 > 100 µM | NCI-H460 57 µM | MCF7 46.5 µM | Malme-3M 29 µM | CAKI-1 66.4 µM | HL-60 24.9 µM

CCCCNC(=S)N/C=C1\C(=O)Oc2ccccc2C1=O
inactive: HT-29 > 100 µM | OVCAR-8 42.4 µM | EKVX > 100 µM | SN12C 68.5 µM | NCI/ADR-RES > 100 µM | SK-OV-3 > 100 µM | OVCAR-3 > 100 µM | HOP-62 80.2 µM | SNB-19 49.4 µM | NCI-H460 64.1 µM | MCF7 > 100 µM | CAKI-1 26.1 µM | HL-60 10 µM

O=C(c1ccccc1)c1ccc2c(c1)NC(=O)c1ccccc1SSc1ccccc1C(=O)N2
inactive: A498 > 100 µM | UACC-62 > 100 µM | HT-29 > 100 µM | RXF 393 > 100 µM | OVCAR-8 > 100 µM | SR 85.5 µM | EKVX > 100 µM | SN12C > 100 µM | NCI/ADR-RES > 100 µM | SK-OV-3 > 100 µM | OVCAR-3 > 100 µM | HOP-62 > 100 µM | SNB-19 > 100 µM | NCI-H460 > 100 µM | BT-549 > 100 µM | Malme-3M > 100 µM | CAKI-1 > 100 µM | HL-60 > 100 µM

Cn1cnc(N2CCCC2)c(C#N)c1=O
inactive: A498 > 100 µM | UACC-62 > 100 µM | HT-29 > 100 µM | RXF 393 > 100 µM | OVCAR-8 > 100 µM | SR > 100 µM | EKVX > 100 µM | SN12C > 100 µM | NCI/ADR-RES > 100 µM | OVCAR-3 > 100 µM | HOP-62 > 100 µM | SNB-19 > 100 µM | NCI-H460 > 100 µM | MCF7 > 100 µM | Malme-3M > 100 µM | CAKI-1 > 100 µM | HL-60 > 100 µM

O=C1C=C2CCC[C@H]3OC(=O)C[C@@]23CC1
inactive: A498 > 100 µM | UACC-62 > 100 µM | HT-29 > 100 µM | RXF 393 > 100 µM | SR > 100 µM | EKVX > 100 µM | SN12C > 100 µM | NCI/ADR-RES > 100 µM | SK-OV-3 > 100 µM | OVCAR-3 > 100 µM | HOP-62 > 100 µM | SNB-19 > 100 µM | NCI-H460 > 100 µM | Malme-3M > 100 µM | CAKI-1 > 100 µM | HL-60 > 100 µM

O=C1CC(C2(O)C(=O)Nc3ccc([N+](=O)[O-])cc32)c2ccccc21 (configuration not stated)
inactive: A498 72.8 µM | UACC-62 19.5 µM | HT-29 22.5 µM | RXF 393 24.8 µM | OVCAR-8 66.4 µM | SR 18.2 µM | EKVX 28.6 µM | SN12C 31.8 µM | SK-OV-3 36.5 µM | OVCAR-3 25.4 µM | HOP-62 64 µM | SNB-19 > 100 µM | NCI-H460 16.3 µM | Malme-3M 40.8 µM | HL-60 14.8 µM
